The target of the experiment is T1, 7-alpha-hydroxycholest-4-en-3-one 12-alpha-hydroxylase (Homo sapiens, UniProt Q9UNU6).
T1 sequence (Q9UNU6 whole entry): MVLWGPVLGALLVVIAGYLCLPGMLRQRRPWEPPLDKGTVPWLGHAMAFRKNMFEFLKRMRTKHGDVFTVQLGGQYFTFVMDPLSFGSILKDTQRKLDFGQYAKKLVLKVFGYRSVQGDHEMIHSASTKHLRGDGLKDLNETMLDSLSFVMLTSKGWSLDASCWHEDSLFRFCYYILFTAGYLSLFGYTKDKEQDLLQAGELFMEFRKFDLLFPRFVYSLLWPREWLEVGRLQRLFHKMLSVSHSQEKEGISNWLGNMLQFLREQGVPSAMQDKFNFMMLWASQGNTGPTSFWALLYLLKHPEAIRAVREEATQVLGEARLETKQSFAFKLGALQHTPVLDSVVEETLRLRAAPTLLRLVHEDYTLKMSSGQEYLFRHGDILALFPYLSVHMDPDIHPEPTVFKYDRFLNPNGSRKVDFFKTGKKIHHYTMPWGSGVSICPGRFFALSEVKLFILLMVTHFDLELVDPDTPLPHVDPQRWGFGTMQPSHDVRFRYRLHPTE
Briefly: Inhibition of CYP8B1 in human liver microsomes using D7-7alpha-hydroxy-4-cholesten-3-one as substrate preincubated for 20 mins followed by substrate addition in presence of NADPH by UPLC-ESI-MS/MS analysis.

Molecules are shown by their SMILES.

Regarding `CC(C)CCC[C@@H](C)[C@H]1CC[C@H]2[C@@H]3[C@H](O)C[C@@H]4C[C@H](O)CC[C@]4(C)[C@H]3C[C@H](O)[C@]12C`, the IC50 worked out at 7600 nM.
On to `N[C@@H]1C[C@H]1c1ccccc1.N[C@H]1C[C@@H]1c1ccccc1` (racemic) [TRANYLCYPROMINE], for which the IC50 came to 7800 nM.
As to `Clc1ccccc1C(c1ccccc1)(c1ccccc1)n1ccnc1` [CLOTRIMAZOLE], the IC50 stood at 800 nM.
Next, `Clc1ccc(COC(Cn2ccnc2)c2ccc(Cl)cc2Cl)cc1` (stereo not drawn) [ECONAZOLE]: 310 nM; `CCC(C)n1ncn(-c2ccc(N3CCN(c4ccc(OC[C@H]5CO[C@](Cn6cncn6)(c6ccc(Cl)cc6Cl)O5)cc4)CC3)cc2)c1=O` (stereo partly drawn) [ITRACONAZOLE]: 4700 nM; `CC(=O)N1CCN(c2ccc(OC[C@H]3CO[C@](Cn4ccnc4)(c4ccc(Cl)cc4Cl)O3)cc2)CC1` [KETOCONAZOLE]: 2200 nM.
For `Clc1ccc(COC(Cn2ccnc2)c2ccc(Cl)cc2Cl)c(Cl)c1` (stereo not drawn) [MICONAZOLE], the IC50 is 1500 nM.
Then `CC[C@@H]([C@H](C)O)n1ncn(-c2ccc(N3CCN(c4ccc(OC[C@@H]5CO[C@@](Cn6cncn6)(c6ccc(F)cc6F)C5)cc4)CC3)cc2)c1=O` [POSACONAZOLE], with 3800 nM.
